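Step 1: Grow cells in 96-well plates. Step 2: Expose to compound for 48 hours at 5 concentrations. Step 3: Interpolate endpoints linearly; if unreached, use highest concentration. At the GI50, growth is halved.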 Active and inactive are the calls of the source. No stated cut-off is given here; in the data, active = GI50 up to about 1.1 µM and inactive = higher.
Key:
Experiment in all cases: growth of human tumour cells (NCI), 48 h
[1] = system: RXF 631
[2] = system: DLD-1
[3] = system: M19-MEL
[4] = system: XF498
[5] = system: Hs-578T
[6] = system: MDA-N
[7] = system: BT-549
[8] = system: T47D

SMILES	GI50 [1]	GI50 [2]	GI50 [3]	GI50 [4]	GI50 [5]	GI50 [6]	GI50 [7]	GI50 [8]
COC(=O)CN(C)P(=O)(N1CC1)N1CC1	> 100 µM (inactive)	> 100 µM (inactive)	–	–	–	–	–	–
COc1ccc(/N=C\c2ccc(N(CCC#N)S(=O)(=O)c3ccccc3)cc2C)cc1	59.8 µM (inactive)	–	41.7 µM (inactive)	> 100 µM (inactive)	–	–	–	–
O=C1CCCC/C1=C1/SC(=N/c2ccccc2)/C(=N\c2ccccc2)N1c1ccccc1	–	–	–	–	78.3 µM (inactive)	> 100 µM (inactive)	> 100 µM (inactive)	> 100 µM (inactive)
O=c1c(-c2ccccc2)c(SCCN2CCOCC2)n(-c2ccccc2)c(=S)n1-c1ccccc1	–	–	–	–	62.2 µM (inactive)	–	> 100 µM (inactive)	–
CCNC(=S)NNC(=O)c1nsc2ccccc12	–	–	97.3 µM (inactive)	–	–	–	–	–
O=C(Nc1ccc([N+](=O)[O-])cc1)C(=O)C(C(=O)c1ccccc1F)C1OC(=O)c2ccccc21 (stereo not given)	26 µM (inactive)	40.6 µM (inactive)	28.1 µM (inactive)	70.3 µM (inactive)	–	–	–	–
Nc1nc2ccc3ccccc3c2[nH]1	–	–	–	–	> 10 µM (inactive)	> 10 µM (inactive)	–	> 10 µM (inactive)
CN(C)CCOc1cc2c(c3ccccc13)-c1ccccc1C2O (stereo not given)	–	15.8 µM (inactive)	16.6 µM (inactive)	12.9 µM (inactive)	–	–	–	–
CS(C)(=O)=Nn1c(=O)n2n(c1=O)C1c3ccccc3C2c2ccccc21	–	–	–	–	–	> 100 µM (inactive)	–	> 100 µM (inactive)
O=C(NNC(=S)Nc1ccccc1)c1nsc2ccccc12	–	–	28.9 µM (inactive)	–	–	–	–	–
CSC1SCC2C(=O)N(C)C(C(C)C)C(=O)OCC(NC(=O)c3cnc4ccccc4n3)C(=O)NC(C)C(=O)N(C)C1C(=O)N(C)C(C(C)C)C(=O)OCC(NC(=O)c1cnc3ccccc3n1)C(=O)NC(C)C(=O)N2C (stereo not given)	–	0.0075 µM (active)	–	–	0.000374 µM (active)	–	0.00158 µM (active)	0.000391 µM (active)
COc1cc([C@@H]2c3cc4c(cc3[C@H](O)[C@H]3COC(=O)[C@H]23)OCO4)cc(OC)c1OC [PODOFILOX]	–	0.0243 µM (active)	–	0.0354 µM (active)	< 0.005 µM (active)	< 0.005 µM (active)	0.0232 µM (active)	0.5 µM (active)
